According to US11801304B2, “Formulated and/or co-formulated liposome compositions containing TFGB antagonist prodrugs useful in the treatment of cancer and methods thereof” (Nammi Therapeutics, Inc., priority 2020, dated 2023):

Assay: Solubility in ethanol when preparing stock solution
Assay type: physicochemical
Details: stock solution 20 mg/ml prepared in acetonitrile instead
Procedure: In another experiment, a liposome comprising the TB4 prodrug (denoted LNP-TB4) was synthesized in the following manner. Briefly, In the first step, a lipid stock solution of POPC (1-palmitoyl-2-oleoyl-glycero-3-phosphocholine), CHOL, and DSPE-PEG, was prepared in ethanol (20 mg/ml) separately. […] The of lipid mixture of POPC, CHOL, TB4+Stearic Acid and DSPE-PEG was mixed together at a molar ratio of 51:29:16.5:3.5, and subsequently diluted with ethanol to get a total lipid concentration of 10 mg/ml. This lipid mixture was heated at 55-60 degree Centigrade using the heating block attachment in the microfluidizer. Similarly, the aqueous phase containing 1 mM PBS buffer was also preheated at 55-60 degree centigrade before passing through the microfluidics cartridge at the flow rate of 5:1 (aqueous:organic phase, lipid mixture). The solvent was removed using dialysis membrane of cut off 12 KDa size (Sigma Aldrich) against DI water for at least 24 hrs. The Dialysis water was changed at least 5 times during the period of 24 hrs. to maximize the removal of the solvent. After the removal of the solvent, the LNP-TB4 was concentrated according to the need using Amicon centrifugal filtration device (cut off size 10 KDa, at 3000 g).
In another experiment, a liposome comprising the TB4 prodrug (denoted LNP-TB4) was co-formulated with ID3 and synthesized in the following manner. […]

solubility in ethanol (in words): not soluble in ethanol
Structure (SMILES): CCCCCCCCCCCCCCCCCC(=O)OCOC(=O)N(C(=O)c1ccc(-c2cc(-c3c[nH]nc3-c3ccccn3)ccn2)cc1)C1CCOCC1 [TB4 prodrug]
